Here are results for one molecule from US6586404B1 (priority 1996, dated 2003).

Structures are written as SMILES. Like-named read-outs stand apart in the source and are kept apart here.

For data set [1], the system named is systolic and diastolic blood pressure. The conditions noted are these: cited from earlier work.
For data set [2] the following is noted: human, in vivo, iv; cited from earlier work.
The test system of data set [3] is guinea pigs. The following applies: non-ascorbate deficient animals, double the dose of 3.75 mmol/kg daily; cited from earlier work.
Data set [4] concerns Mouse. The following applies: pretreatment with GSH; cited from earlier work.
Data set [5] in a line: in vivo. The conditions noted are these: po.
Excerpt: Once past the stomach, it is important that the glutathione be immediately available for absorption, as the desulfurases and peptidases from the pancreas, as well as the increase in pH, do tend to degrade the glutathione. […] Thus, by providing a high concentration of glutathione in the duodenum, without substantial dilution, the glutathione may be absorbed at a maximum rate.

As a reminder, the bioavailability is dose-corrected exposure relative to a reference, in per cent. Take `N[C@@H](CCC(=O)N[C@@H](CS)C(=O)NCC(=O)O)C(=O)O` [GSH, gamma-glutamyl-cysteinyl-glycine]: in data set [1] (1,844 mg i.v. bolus), the “time of return of blood pressure to baseline” value is at most 30 min. Besides, the blood pressure effect result in data set [1] (1,844 mg i.v. bolus, hypertensive patients and non-hypertensive diabetics) is “rapid and significant decrease in both systolic and diastolic blood pressure”; in data set [1] (1,844 mg i.v. bolus, normal healthy subjects) it was “no effect”; in data set [1] (3,699 mg dose, normal subjects) it was “significant decrease in the blood pressure values”. Further, the half-life in data set [2] was 14.1−9.2 minutes. Also, the “volume of distribution of exogenous glutathione” value in data set [2] is given as 176−107 Ml/Kg. In data set [3], the toxicity entry is on record as “seen at double this dose”. The “effect on morphine-induced lethality” value in data set [4] is “protects against morphine-induced lethality”. In data set [5], this molecule had a bioavailability of about 90%.
